This note sets out measurements from ChEMBL document CHEMBL1124675, “Synthesis and biological evaluation of a monocyclic, fully functional analogue of compactin” (J Med Chem, 1989).

In general, pIC50 refers to −log10 of the IC50, conventionally taken in molar units.

pIC50: −log10 of the molar value.

In this experiment the target is T1, 3-hydroxy-3-methylglutaryl-coenzyme A reductase (Rattus norvegicus, UniProt P51639).
T1 sequence (P51639 whole entry): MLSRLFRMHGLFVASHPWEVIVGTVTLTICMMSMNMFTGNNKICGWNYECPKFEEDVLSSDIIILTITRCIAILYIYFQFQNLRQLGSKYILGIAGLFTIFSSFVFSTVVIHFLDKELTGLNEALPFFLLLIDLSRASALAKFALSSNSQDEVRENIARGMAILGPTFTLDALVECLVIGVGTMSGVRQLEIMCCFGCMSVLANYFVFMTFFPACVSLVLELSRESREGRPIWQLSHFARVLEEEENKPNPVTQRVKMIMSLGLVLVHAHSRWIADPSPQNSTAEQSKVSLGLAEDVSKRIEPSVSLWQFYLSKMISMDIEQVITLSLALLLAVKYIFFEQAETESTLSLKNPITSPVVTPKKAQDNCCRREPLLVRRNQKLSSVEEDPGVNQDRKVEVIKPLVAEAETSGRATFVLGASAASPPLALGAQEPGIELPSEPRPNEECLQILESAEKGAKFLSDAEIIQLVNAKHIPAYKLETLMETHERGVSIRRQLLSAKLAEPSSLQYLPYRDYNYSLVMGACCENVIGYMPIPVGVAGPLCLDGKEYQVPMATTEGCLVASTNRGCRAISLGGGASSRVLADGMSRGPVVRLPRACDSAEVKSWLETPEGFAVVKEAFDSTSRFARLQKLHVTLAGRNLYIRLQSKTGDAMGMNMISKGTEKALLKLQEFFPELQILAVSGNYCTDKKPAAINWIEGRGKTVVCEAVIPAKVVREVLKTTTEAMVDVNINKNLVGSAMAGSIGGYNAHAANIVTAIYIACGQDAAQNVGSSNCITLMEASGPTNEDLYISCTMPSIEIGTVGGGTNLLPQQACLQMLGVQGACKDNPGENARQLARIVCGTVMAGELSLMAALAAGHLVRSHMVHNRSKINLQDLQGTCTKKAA
Briefly: Ability of compound to inhibit the activity of 3-hydroxy-3-methylglutarylcoenzyme A(HMGR) reductase in rat liver microsomes. Details: species or system Microsome. Background: Liver microsomes are vesicles of endoplasmic reticulum, rich in cytochrome P450 enzymes.
For the compound `CC[C@H](C)C(=O)O[C@H]1CCC=C2C=C[C@H](C)[C@H](CCC(=O)C[C@@H](O)CC(=O)O)C21` (stereo not given in full), the pIC50 was 7.49. In the case of `CC[C@H](C)C(=O)O[C@H]1CCC=C2C=C[C@H](C)[C@H](CCC(O)C[C@@H](O)CC(=O)O)C21` (stereo not given in full) it was 7.89. Then `CC[C@H](C)C(=O)O[C@H]1C[C@@H](C)C[C@@H]2C=C[C@H](C)[C@H](CCC(O)C[C@@H](O)CC(=O)O)C12` (stereo not given in full), with 8.80.

Consider `O=C(O)C[C@H](O)CC(=O)CCc1ccccc1`, for which the negative-log IC50 (pIC50) is 2.89. Then `O=C(O)CC(O)CC(O)CCc1ccccc1` (stereo not given), with 3.22.
